Five compounds from patent publication US20260306421A1, “SYSTEMS AND METHODS FOR TRANSDERMAN PATCH DELIVERY” (VITAMAX PATCH WHOLESALER LLC, priority 2022, published 2026) can be followed below.

What is called Solubility is the concentration that dissolves in the medium under given conditions.

The nature of data set [1]: Solubility of iron chloride hexahydrate and iron complexes (visual / assayed). Type of data set: physicochemical. Here is the method:
Due to the high number of test samples (6 complexes plus the starting material, iron chloride hexahydrate) a visual solubility screen was used to screen the solubility in a range of solvents. […] Quantitative determination was performed by either incubating the complex in excess in the solvent using a shaking 37° C. water bath for 48 h or sonicating it for 2 hours at 40° C. or leaving overnight on a 50° C. hot plate. Once incubation period was completed, the exact solubility in a particular solvent was assayed (using the iron assay) after centrifugation (i.e. assay iron content in the supernatant using the Ferrozine® assay).

A short description of data set [2]: Visual skin damage / necrosis after iron permeation study. Conditions: after 24 h permeation study, porcine skin. The text has this: (§1) On the day of the experiment, the skin was defrosted. For the full thickness studies, the subcutaneous fat removed (2.5 mm thick) and for the dermatomes skin studies the tissued was dermatomed to a 1 mm thickness. The tissue was cut into the appropriate size sections (2.19±0.21 cm^2) and mounted between donor and receiver compartments of Franz diffusion cells with the SC facing the donor compartment. Each cell was sealed using parafilm and 12 mm magnetic stir bars were placed into the receiver compartment. The receiver compartment was filled with the desired receiver solution and the Franz cells were placed in a stirring water bath at 37° C. Cells were allowed to equilibrate for 30 min after which the receiver fluid using was mixed using a syringe and the “zero hour” sample was withdrawn from the arm and compensate with the same volume of fresh pre-warmed solution. Following zero-hour sampling, the donor solution was placed in the donor compartment and covered with parafilm. Samples were withdrawn and compensated with fresh receiver solution at set time intervals for a 24 h duration. The iron in each sample was quantified using the method specified in Section 2.2.2.1. […] There was no matrix interference noted in the assay. […] For iron maltol a 80:20 PG:water receiver was used along with a complementary calibration for iron assay (iron chloride in PG:water). The donor solution for the iron maltol made at pH 1.6 was 200 μL of 100 mg/mL complex in Transcutul®, for iron maltol made at pH 4 the donor solution was 200 μL of 23 mg/mL complex in PG and for iron maltol made at pH 4 the donor solution was 150 μL of 16 mg/mL complex in 7.5:1.5:1:1 water:PG:dimethicone:ethanol.

Data set [3] in a line: Franz cell porcine skin permeation and deposition of iron from solutions. Type of data set: in vitro ADME. The following applies: for total delivered dose: PG solution; for permeation and deposition in the skin: solutions. As to the method:
The permeation of the iron complexes from the formulations into and across porcine skin mounted on Franz cells with a receiver fluid was tested (FIG. 4). This was based on the principles of the FDA, SUPAC-SS guidelines. The developed colorimetric assay method was used for iron quantification.
as §1
Once the permeation studies were completed the donor solutions were collected into bottles containing the extraction solution. This was followed by skin surface cleaning using four cotton buds, the first two were wetted by the extraction fluid and the second two were used dry. Then two tape striping procedures were performed using 2 tapes to remove any iron on the skin surface with the tape being added to the donor solution and cotton buds in the donor recover vial. For the full skin thickness skin, the Stratum corneum, the dermal and the epidermal layers were isolated in the same way as the recovery method (Section 2.3.2.1). Extraction fluid (50:50 PBS:ethanol) was then added to the tissues, 4 mL to the Stratum corneum, and 2 mL for each of the epidermis and dermis. For the dermatomed skin the whole skin section was chopped up and placed in a 2 mL extraction fluid (ethanol).
The Stratum corneum samples were placed on vibrating plate for a minimum of 2 h to extract the iron and then vortexed prior assay. The epidermis, dermis or dermatomed samples however were incubated with the extraction fluid for 1 h after which were transferred to Eppendorf tubes, one stainless steel 5 mm bead was added and the samples were loaded into the TissuLyser II (Qiagen, Germany) for 30-15 min at 30 Hz. The samples were then centrifuged (5 min at 13,000 rpm) and supernatant assayed.

Data set [4] can be described thus: Iron complex adhesive compatibility and loading screen. Type of data set: physicochemical. As to the method:
Pre-formulation studies were performed to determine the compatibility of the iron complexes with a range of transdermal patch adhesives (Table 15).
The compatibility of the complexes with the patch adhesives was assessed by mixing and visually checking the clarity of the mixture.
In the adhesives that were computable with the iron complexes the maximum drug loading of the complexes in the adhesive following solvent evaporation was determined. This was achieved by mixing the drug, adhesive and co-solvents until a clear solution was obtained at different drug:adhesive ratios and placing few drops of the mixture onto the patch backing sheet, leaving it to dry for 3-4 h, and examining the formed film on the surface of the backings for evidence of drug crystals.
Following complete drying of the solvents, the adhesive layer was covered by a release liner, compressed, and then cut using 34 mm circular manual die cutter (FIG. 23).

Data set [5] is described as follows: Solubility of zinc chloride and zinc complexes (visual / HPLC). The format is physicochemical. Here is the method: Accurate measurement of the solubility was then repeated for some of the solvent systems by HPLC. In the HPLC solubility studies, an excess of the test agents was loaded into 2 mL of each test solvent. The solutions were left stirring overnight at 32° C. […] The drug suspensions were then centrifuged, the supernatant diluted, and each sample concentration was measured using HPLC.

The mark [6] stands for this setting: PG, 370 mg elemental iron dosed, 2 cm^2, 24 h.

The structures appear in SMILES notation. Marks after values point to notes of the source that are not given here.

Consider `O.O.O.O.O.O.[Cl-].[Cl-].[Cl-].[Fe+3]` [Iron chloride hexahydrate, reference compound], for which, in data set [1] (PG), the “Solubility, equivalent elemental iron” value was 370 mg/mL. For the same compound, the Solubility in data set [1] (PG, as iron chloride hexahydrate) was 1400 mg/mL. For the same compound, the “skin damage / necrosis” value in data set [2] is on record as “necrosis of the skin”. Besides, in data set [3] (setting [6]), the “elemental iron permeated the skin” value was found to be 180 mg and the “elemental iron permeated, percent of dose” value worked out at 48%. The “dose above the desired target (4.6 mg)” value in data set [3] (PG, 24 h) was determined as 40 times.

Take `CCc1occc(=O)c1[O-].CCc1occc(=O)c1[O-].CCc1occc(=O)c1[O-].[Fe+3]` [Iron ethyl maltol, iron ethyl maltol]: the “Solubility of complex (visual)” value was no less than 20 mg/mL Iron ethyl maltol* in data set [1] (Chloroform); less than 8 mg/mL Iron ethyl maltol* in data set [1] (Ethyl acetate); less than 8 mg/mL Iron ethyl maltol* in data set [1] (Glycerol); less than 8 mg/mL Iron ethyl maltol* in data set [1] (Hexane); less than 8 mg/mL Iron ethyl maltol* in data set [1] (Liquid Paraffin); no less than 20 mg/mL Iron ethyl maltol* in data set [1] (Methanol). In addition, the “Solubility of complex (visual)” value in data set [1] (Miglyol), in data set [1] (Oleic acid), in data set [1] (Transcutul) and in data set [1] (Triaceten) was less than 8 mg/mL Iron ethyl maltol* each time. Besides, the “skin damage / necrosis” value in data set [2] is “did not cause any visible skin damage”. The same compound had a total delivered dose in data set [3] (24 h) of 12 μg/cm^2. The compatibility with adhesives entry in data set [4] is “only compatible with DURO-TAK 9301”. Besides, the “(maximum) complex loading achieved in adhesive” value in data set [4] (methanol stock solution 10 mg/mL) was determined as 4%. Besides, the “complex loading achieved in adhesive patch” value in data set [4] (methanol stock solution 18 mg/mL) came to 8.5%.

As for `Cc1occc(=O)c1[O-].Cc1occc(=O)c1[O-].Cc1occc(=O)c1[O-].[Fe+3]` [Iron maltol made at pH 1.6, iron maltol], the “Solubility of complex (visual)” value in data set [1] (PEG400) and in data set [1] (PG) was less than 6 mg/mg/mL each time. The same compound showed a Solubility of complex in data set [1] (Transcutul) of 100 mg/mg/mL. In addition, the “Solubility, equivalent elemental iron” value in data set [1] (Transcutul) is “to 13 mg/ mg/mL”. In data set [2], the “skin damage / necrosis” value was “caused skin necrosis”. The “permeation and deposition in the skin” value in data set [3] (24 h) is “permeated and deposited in the skin”.

Regarding `Cc1occc(=O)c1[O-].Cc1occc(=O)c1[O-].Cc1occc(=O)c1[O-].[Fe+3]` [Iron maltol made at pH 4, iron maltol], in data set [1] (PEG400), the Solubility of complex was determined as 20 mg/mg/mL and the “Solubility, equivalent elemental iron” value was “to 2.7 mg/ mg/mL”. Further, in data set [1] (PG), the Solubility of complex came to 17 ± 5 mg/mg/mL and the “Solubility, equivalent elemental iron” value is “to 2.3 ± 0.6 mg/mL”. The Solubility in data set [1] (PG and PEG400 (conclusions)) is on record as 18 mg/mL. Further, the “Solubility of complex (visual)” value in data set [1] (Transcutul) is less than 6 mg/mL. Also, the “skin damage / necrosis” value in data set [2] is recorded as “without inducing skin necrosis”. Also, in data set [3] (24 h), the total delivered dose was 65 μg/cm^2; the “permeation and deposition in the skin” value was “permeated and deposited in the skin”.

As to `[Cl-].[Cl-].[Zn+2]` [Zinc Chloride, Zinc chloride, reference compound], the “Elemental zinc solubility (visual)” value in data set [5] (solvent PEG400, visual solubility (*)) is ~2.7* mg/mL. Further, the “Elemental zinc solubility evaluated by HPLC” value in data set [5] (solvent PG) was 2.7 mg/mL.
